Literature values in patent US6338859B1, “Polymeric micelle compositions” (Labopharm Inc., priority 2000, dated 2002).
Values joined by “and” are separate entries in the source; they are usually repeats but may differ in a detail not shown here. Equal entries are not always repeated. Where two headings read alike, the source gives them in different places. Marks after values point to notes of the source that are not given here. Each block holds one molecule with its values, some of them ahead of it.

Key:
[1] = not given; remark: listed apart in the source
[2] = polymer PEO-PE, physical entrapment
[3] = polymer PEO-PBLA, physical entrapment
[4] = polymer PEO-P(Asp), chemical bonding

Micelle size with drug (polymer PEO-PPO-PEO, physical entrapment): 15 nm
Molecule: O=C(CCCN1CCC(O)(c2ccc(Cl)cc2)CC1)c1ccc(F)cc1 [Haloperidol]

Molecule: Gd-DTPA-PE
Micelle size with drug [2]: 20 nm

Molecule: C[C@@H]1[C@H](O)[C@@H](C)/C=C/C=C/C=C/C=C/C=C/C=C/C=C/[C@H](O[C@@H]2O[C@H](C)[C@@H](O)[C@H](N)[C@@H]2O)C[C@@H]2O[C@](O)(C[C@@H](O)C[C@@H](O)[C@H](O)CC[C@@H](O)C[C@@H](O)CC(=O)O[C@H]1C)C[C@H](O)[C@H]2C(=O)O [Amphotericin B]
hemolytic activity ([1]; after incorporation into PEO-PBLA micelles): decrease | Micelle size with drug [3]: 26 nm

Micelle size with drug [2]: 15 nm
Molecule: Cc1cc(N)c2ccccc2[n+]1CCCCCCCCCC[n+]1c(C)cc(N)c2ccccc21 [Dequalinium]

Molecule: N.N.[Cl][Pt][Cl] [Cisplatin]
Micelle size with drug [4]: 16 nm

Micelle size with drug [3]: 25-29 nm | Micelle size with drug (polymer PEO-PCL, physical entrapment): 145-165 nm and 114-156 nm
Molecule: COc1ccc2c(c1)c(CC(=O)O)c(C)n2C(=O)c1ccc(Cl)cc1 [Indomethacin]

Molecule: ^111In-DTPA-SA
Micelle size with drug [2]: 20 nm

retention of drug in micelles ([1]; in PEO-PBLA after freeze drying and reconstitution in water, iodide quenching): retained | Micelle size with drug [4]: 14-131 nm and 17-42 nm | Micelle size with drug (polymer PEO-P(Asp), chemical bonding, listed as Doxirubicin (DOX)): 50 nm | Micelle size with drug [3]: 30 nm and 37 nm
Molecule: COc1cccc2c1C(=O)c1c(O)c3c(c(O)c1C2=O)C[C@@](O)(C(=O)CO)C[C@@H]3O[C@H]1C[C@H](N)[C@H](O)[C@H](C)O1 [DOX, doxorubicin]

Micelle size with drug (polymer PEO-(C16, BLA), physical entrapment, after the sonication of PEO(C16, BLA) aggregates): 71* nm
Molecule: KRN-5500

B1: Soybean trypsin inhibitor: Soybean trypsin inhibitor physically entrapped in PEO-PE micelles (protein, UniProt P01070 25-205, looked up)
Trypsin inhibitor A: DFVLDNEGNPLENGGTYYILSDITAFGGIRAAPTGNERCPLTVVQSRNELDKGIGTIISSPYRIRFIAEGHPLSLKFDSFAVIMLCVGIPTEWSVVEDLPEGPAVKIGENKDAMDGWFRLERVSDDEFNNYKLVFCPQQAEDDKCGDIGISIDHDDGTRRLVVSKNKPLVVQFQKLDKESL
modifications: entrapped in PEO-PE micelles
Micelle size with drug [2]: 15 nm
